Experimental data as given in PMC5290327, “SC83288 is a clinical development candidate for the treatment of severe malaria” (Nature Communications, 2017).
Values joined by “and” are separate entries in the source; they are usually repeats but may differ in a detail not shown here. Equal entries are not always repeated.

What was measured:
TP (h) (TXA2/PGH2) = biological target: T1, TP (h) (TXA2/PGH2) (Homo sapiens, UniProt P21731); assay: Radioligand binding
T1 construct: Cerep
T1 sequence (P21731 1-343): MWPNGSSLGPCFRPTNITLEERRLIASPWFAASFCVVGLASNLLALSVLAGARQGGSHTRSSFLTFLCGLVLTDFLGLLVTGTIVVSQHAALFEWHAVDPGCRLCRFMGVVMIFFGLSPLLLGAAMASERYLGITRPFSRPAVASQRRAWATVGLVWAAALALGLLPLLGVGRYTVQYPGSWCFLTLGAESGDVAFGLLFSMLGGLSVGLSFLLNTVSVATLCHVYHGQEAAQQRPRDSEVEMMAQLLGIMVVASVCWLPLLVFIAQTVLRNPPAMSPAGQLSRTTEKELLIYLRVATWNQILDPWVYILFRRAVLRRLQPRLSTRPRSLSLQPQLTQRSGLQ

BZD (central) = assay: Radioligand binding
5-HT3 (h) = biological target: T2, 5-HT3 (h) (Homo sapiens, UniProt P46098); assay: Radioligand binding
T2 construct: Cerep (contract screening)
T2 sequence (P46098 24-478): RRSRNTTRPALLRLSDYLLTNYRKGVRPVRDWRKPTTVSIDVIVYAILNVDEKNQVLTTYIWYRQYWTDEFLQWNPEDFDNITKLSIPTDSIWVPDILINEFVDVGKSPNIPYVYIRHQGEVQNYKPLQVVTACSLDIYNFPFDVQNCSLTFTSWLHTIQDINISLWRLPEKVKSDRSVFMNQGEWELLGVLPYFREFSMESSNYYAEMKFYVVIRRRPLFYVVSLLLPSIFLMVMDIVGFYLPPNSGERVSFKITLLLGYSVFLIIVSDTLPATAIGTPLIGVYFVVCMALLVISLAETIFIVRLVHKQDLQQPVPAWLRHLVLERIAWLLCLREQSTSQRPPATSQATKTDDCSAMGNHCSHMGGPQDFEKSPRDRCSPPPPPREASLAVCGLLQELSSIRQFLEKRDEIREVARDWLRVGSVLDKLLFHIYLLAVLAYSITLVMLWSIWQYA

CB1 (h) = biological target: T3, CB1 (h) (Homo sapiens, UniProt P21554); assay: Radioligand binding
T3 construct: Cerep (contract study)
T3 sequence (P21554 whole entry): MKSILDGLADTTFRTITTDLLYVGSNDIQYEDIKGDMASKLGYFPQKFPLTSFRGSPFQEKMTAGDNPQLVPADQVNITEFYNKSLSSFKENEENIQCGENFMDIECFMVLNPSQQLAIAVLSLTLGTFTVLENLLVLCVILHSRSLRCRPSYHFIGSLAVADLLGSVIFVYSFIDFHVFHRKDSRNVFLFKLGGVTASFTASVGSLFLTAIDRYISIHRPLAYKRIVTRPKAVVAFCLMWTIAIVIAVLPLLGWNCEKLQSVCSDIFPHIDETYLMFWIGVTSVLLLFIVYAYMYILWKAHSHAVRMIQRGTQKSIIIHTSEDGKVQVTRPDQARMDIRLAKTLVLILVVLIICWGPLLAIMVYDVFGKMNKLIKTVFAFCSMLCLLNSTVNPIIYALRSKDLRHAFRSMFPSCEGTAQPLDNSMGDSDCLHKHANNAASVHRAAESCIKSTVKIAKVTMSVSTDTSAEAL

[1] = system: synchronized Dd2 rings, trophozoites, schizonts; assay: Stage-specific activity, 6 h exposure, [3H] hypoxanthine; format: cell-based; settings: Plasmodium falciparum, DD2, 6 h
[2] = system: P. falciparum strain NF54; assay: Growth inhibition assay; format: cell-based; settings: Plasmodium falciparum
Na+ channel (site 2) = assay: Radioligand binding
ETA (h) = biological target: T4, ETA (h) (Homo sapiens, UniProt P25101); assay: Radioligand binding
T4 construct: Cerep
T4 sequence (P25101 21-427): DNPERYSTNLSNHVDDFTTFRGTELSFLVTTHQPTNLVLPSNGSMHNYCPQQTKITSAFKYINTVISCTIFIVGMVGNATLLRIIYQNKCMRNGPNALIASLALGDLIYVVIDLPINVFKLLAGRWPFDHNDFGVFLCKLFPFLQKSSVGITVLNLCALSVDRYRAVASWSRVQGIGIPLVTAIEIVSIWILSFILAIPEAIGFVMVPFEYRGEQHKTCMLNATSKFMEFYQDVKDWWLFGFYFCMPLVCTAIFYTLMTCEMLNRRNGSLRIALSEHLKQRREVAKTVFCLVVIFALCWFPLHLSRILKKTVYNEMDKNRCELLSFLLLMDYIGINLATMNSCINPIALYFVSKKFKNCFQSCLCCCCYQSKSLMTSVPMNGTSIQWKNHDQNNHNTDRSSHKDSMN

Plasmodium berghei = assay: Ex vivo one-cycle growth inhibition assay; format: cell-based
Protocol: This was the case for both an in vivo 4 day dosing regimen of 30 mg kg^−1 per day and an ex vivo one-cycle growth inhibition assay. […] Differential therapeutic efficacy in various rodent model systems is a well-established phenomenon and is typically associated with charged compounds, such as positively charged amidines and negatively charged phosphoric acid or carboxylic acid containing drugs. The phenomenon is explained based on selective uptake of charged compounds through parasite-induced channels, termed new permeation pathways, in the host cell plasma membrane and species-specific characteristics of the new permeation pathways.

GABA (non-selective) = assay: Radioligand binding
[3] = system: 54 human transporters and receptors; assay: In vitro safety pharmacology profiling, whole panel; format: binding
Protocol: The study was carried out by Cerep (Celle l'Evescault, France). An in vitro pharmacological profiling panel was designed to detect potential high-risk clinical adverse drug reactions. The panel comprised of 54 targets.
The specific ligand binding to the receptors was defined as the difference between the total binding and the non-specific binding determined in the presence of an excess of unlabelled ligand. Results were expressed as a per cent of control specific binding and as a per cent inhibition of control specific obtained in the presence of the test compounds. Results showing an inhibition (or stimulation) >50% were considered to represent significant effects of the test compounds. […] The IC50 values were determined by non-linear regression analysis of the competition curves generated with mean replicate values using Hill equation curve fitting. The inhibition constants (Ki) were calculated using the Cheng Prusoff equation.

5-HT7 (h) = biological target: T5, 5-HT7 (h) (Homo sapiens, UniProt P34969); assay: Radioligand binding
T5 construct: Cerep (contract screening)
T5 sequence (P34969 whole entry): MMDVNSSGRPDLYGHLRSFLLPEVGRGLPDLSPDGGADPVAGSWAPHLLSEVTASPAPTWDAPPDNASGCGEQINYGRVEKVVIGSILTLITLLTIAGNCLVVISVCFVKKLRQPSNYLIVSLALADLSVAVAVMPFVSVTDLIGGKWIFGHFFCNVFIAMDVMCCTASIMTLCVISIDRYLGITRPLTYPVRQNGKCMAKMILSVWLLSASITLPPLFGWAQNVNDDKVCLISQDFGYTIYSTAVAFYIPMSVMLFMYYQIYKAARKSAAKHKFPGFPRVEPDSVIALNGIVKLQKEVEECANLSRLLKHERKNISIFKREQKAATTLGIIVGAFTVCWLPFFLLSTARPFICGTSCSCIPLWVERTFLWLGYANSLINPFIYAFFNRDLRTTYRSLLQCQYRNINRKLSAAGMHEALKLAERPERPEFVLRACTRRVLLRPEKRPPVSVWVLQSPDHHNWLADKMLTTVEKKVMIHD

CCR1 (h) = biological target: T6, CCR1 (h) (Homo sapiens, UniProt P32246); assay: Radioligand binding
T6 construct: Cerep
T6 sequence (P32246 1-355): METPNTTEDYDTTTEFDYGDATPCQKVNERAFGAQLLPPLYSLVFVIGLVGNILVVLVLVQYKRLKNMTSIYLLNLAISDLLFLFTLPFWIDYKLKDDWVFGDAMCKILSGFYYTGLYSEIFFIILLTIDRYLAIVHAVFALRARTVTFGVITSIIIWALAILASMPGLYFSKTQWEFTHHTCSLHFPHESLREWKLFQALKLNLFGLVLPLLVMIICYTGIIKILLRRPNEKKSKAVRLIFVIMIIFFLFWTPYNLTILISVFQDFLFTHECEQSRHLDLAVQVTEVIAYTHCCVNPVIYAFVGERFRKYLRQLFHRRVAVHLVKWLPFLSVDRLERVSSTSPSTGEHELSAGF

[4] = system: P. falciparum strains 3D7 and W2; assay: Efficacy in the Pf/NSG mouse model; format: in vivo, Plasmodium falciparum; settings: for reduction of parasite burden within the first 24 h: 10.0 mg kg^−1 per day i.p.; for recrudescence of the infection: 3 weeks survey, exception 3D7-infected mice treated with 2.5 mg kg^−1 of SC81458; for In vivo PCT99.9%: i.p. once per day 4 days
[5] = system: P. falciparum strain FCR3; assay: Growth inhibition assay; format: cell-based; settings: Plasmodium falciparum
CYP2B6 = CYP2B6 (Homo sapiens, UniProt P20813); assay: CYP inhibition, human liver microsomes; settings: CYP2B6, bupropion to OH-bupropion, 10 µM
Chain of CYP2B6 (P20813 whole entry): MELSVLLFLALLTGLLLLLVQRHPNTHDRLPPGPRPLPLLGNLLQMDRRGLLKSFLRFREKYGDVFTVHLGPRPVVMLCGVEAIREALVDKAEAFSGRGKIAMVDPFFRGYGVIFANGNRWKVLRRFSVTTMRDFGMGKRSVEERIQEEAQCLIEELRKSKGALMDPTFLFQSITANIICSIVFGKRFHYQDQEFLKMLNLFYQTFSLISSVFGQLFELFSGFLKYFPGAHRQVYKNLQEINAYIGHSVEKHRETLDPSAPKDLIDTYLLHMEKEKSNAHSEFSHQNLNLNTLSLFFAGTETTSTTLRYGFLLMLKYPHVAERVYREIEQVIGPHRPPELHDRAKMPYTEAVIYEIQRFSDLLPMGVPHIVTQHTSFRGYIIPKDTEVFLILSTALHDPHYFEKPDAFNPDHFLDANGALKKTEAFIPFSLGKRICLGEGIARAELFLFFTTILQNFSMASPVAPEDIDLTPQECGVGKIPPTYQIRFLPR

[6] = In vitro metabolism in liver microsomes; settings: rat liver microsomes, 10 μM
[7] = system: Dd2 P. falciparum parasites; assay: In vitro parasite reduction ratio assay (Sanz protocol); format: cell-based, Plasmodium falciparum; settings: for In vitro PCT99.9% / In vitro lag phase: 10 times IC50, Dd2; for parasites killed within the first 48 h of treatment: in vitro assay and NSG mouse model
P. falciparum strain 3D7 = assay: Growth inhibition assay; format: cell-based; settings: Plasmodium falciparum
[8] = system: human peripheral blood macrophages; assay: Cytotoxicity; settings: 50 μM

COC(=O)N1CCN(C(=N)c2cccc(NC(=O)Nc3ccc(S(=O)(=O)NCc4ccc(S(N)(=O)=O)cc4)cc3)c2)CC1 [SC83288, methyl 4-(imino(3-(3-(4-(N-(4-sulfamoylbenzyl)sulfamoyl)phenyl)ureido)phenyl)methyl) piperazine-1-carboxylate]
Inhibition of control specific binding (TP (h) (TXA2/PGH2)): -5% | Inhibition of control specific binding (BZD (central)): 70% | Inhibition of control specific binding (5-HT3 (h)): 17% | Inhibition of control specific binding (CB1 (h)): 1% | IC50 ([1]; ring stages): 3 ± 1 µM | IC50 ([1]; schizonts): 0.11 ± 0.03 µM | IC50 ([1]; trophozoites): 0.04 ± 0.004 µM | IC50 [2]: 0.002 ± 0.001 µM | Inhibition of control specific binding (Na+ channel (site 2)): 19% | Inhibition of control specific binding (ETA (h)): 0% | activity, ex vivo one-cycle growth inhibition assay (Plasmodium berghei): inactive | Inhibition of control specific binding (GABA (non-selective)): 6% | binding potential to 54 human transporters and receptors [3]: low to moderate | Inhibition of control specific binding (5-HT7 (h)): 4% | Inhibition of control specific binding (CCR1 (h)): -2% | reduction of parasite burden within the first 24 h [4]: ~93% | recrudescence of the infection [4]: no recrudescence | free-minimal parasiticidal concentration (MPC) ([4]; NSG mice): 200 nM | ED50 (free plasma concentration) ([4]; NSG mice, 2 days after commencement of treatment, sigmoidal model fit): 0.045 µM | ED90 (free plasma concentration) ([4]; NSG mice, sigmoidal model fit): 0.08 µM | reduction of parasitemia over a replicative cycle of 48 h ([4]; humanized NSG mouse): 99.9% | In vivo PCT99.9% ([4]; humanized NSG mouse): 48 h | In vivo logPRR ([4]; humanized NSG mouse, no distinction between strains): 3.0 | IC50 [5]: 0.006 ± 0.001 µM | Remaining enzyme activity (CYP2B6): 95% | remaining after 60 min of incubation [6]: 91% | In vitro PCT99.9% [7]: 51±6 h and 51±6 (4) h | In vitro lag phase [7]: <5 h | parasites killed within the first 48 h of treatment [7]: ≥ 99.9% | IC50 (P. falciparum strain 3D7): 0.008 ± 0.002 µM | in vitro propagation / cytotoxicity [8]: did not affect

CCCCN1CCN(C(=N)c2cccc(NC(=O)Nc3ccc(S(=O)(=O)NCc4ccc(S(N)(=O)=O)cc4)cc3)c2)CC1 [SC81458, 4-(3-(3-((4-butylpiperazin-1-yl)(imino)methyl)phenyl)ureido)-N-(4-sulfamoylbenzyl) benzenesulfonamide]
Inhibition of control specific binding (TP (h) (TXA2/PGH2)): -10% | Inhibition of control specific binding (BZD (central)): 16% | Inhibition of control specific binding (5-HT3 (h)): 1% | Inhibition of control specific binding (CB1 (h)): 21% | IC50 ([1]; ring stages): 5 ± 1 µM | IC50 ([1]; schizonts): 0.07 ± 0.01 µM | IC50 ([1]; trophozoites): 0.037 ± 0.003 µM | IC50 [2]: 0.0004 ± 5e-05 µM | Inhibition of control specific binding (Na+ channel (site 2)): 45% | Inhibition of control specific binding (ETA (h)): 1% | activity, ex vivo one-cycle growth inhibition assay (Plasmodium berghei): inactive | Inhibition of control specific binding (GABA (non-selective)): 14% | binding potential to 54 human transporters and receptors [3]: low to moderate | Inhibition of control specific binding (5-HT7 (h)): 19% | Inhibition of control specific binding (CCR1 (h)): -13% | reduction of parasite burden within the first 24 h [4]: ~97% | recrudescence of the infection [4]: no recrudescence | In vivo PCT99.9% ([4]; humanized NSG mouse): <48 h | IC50 [5]: 0.013 ± 0.008 µM | Remaining enzyme activity (CYP2B6): 87% | remaining after 60 min of incubation [6]: 74% | In vitro PCT99.9% [7]: 37±4 h and 37±4 (4) h | In vitro lag phase [7]: <5 h | parasites killed within the first 48 h of treatment [7]: ≥ 99.9% | IC50 (P. falciparum strain 3D7): 0.013 ± 0.001 µM | in vitro propagation / cytotoxicity [8]: did not affect
